Test results as given in patent US7534809B2, “Phospho-indoles as HIV inhibitors” (priority 2004, dated 2009).
Like-named read-outs stand apart in the source and are kept apart here.

Key:
HIV mutant strain Y181C = assay: Cell-based assay using BH-10 cells, Y181C mutant
Experimental: (§1) In a typical embodiment, the NNRTIs display an EC50 in a mutant HIV strain of less than approximately 5, 2.5, 1 or 0.1 μM concentration. The degree of cross-resistance against a drug resistant strain of HIV is measured by assessing the EC50 of the desired oxo-pyrimidine compound in the target mutated, i.e., drug resistant, virus.
(§2) The degree of cross-resistance against a drug resistant strain of HIV can easily be measured by assessing the EC50 of the desired indole in the target mutated i.e., drug resistant, virus.

[1] = tested on: HIV mutant strain K103N/Y181C; assay: Cell-based assay using BH-10 cells, K103N/Y181C mutant
Experimental: as §1, §2

HIV BH-10 WT = assay: Cell-based assay using BH-10 cells, wild type
[2] = BH-10 cells, Y181C mutant, read-out: EC50 Y181C
[3] = BH-10 cells, K103N/Y181C mutant, read-out: EC50 K103N/Y181C
[4] = BH-10 cells, wild type, read-out: EC50 WT///B
[5] = Human immunodeficiency virus 1, read-out: EC50 Y181C, BH-10 cells, Y181C mutant
[6] = Human immunodeficiency virus 1, read-out: EC50 K103N/Y181C, BH-10 cells, K103N/Y181C mutant
[7] = Human immunodeficiency virus 1, read-out: EC50 WT///B, BH-10 cells, wild type

| SMILES | EC50 (HIV mutant strain Y181C; [2]) [nM] | EC50 [1, 3] [nM] | EC50 (HIV BH-10 WT; [4]) [nM] | EC50 (HIV mutant strain Y181C; [5]) [nM] | EC50 [1, 6] [nM] | EC50 (HIV BH-10 WT; [7]) [nM] |
| --- | --- | --- | --- | --- | --- | --- |
| CCOP(=O)(c1cccc(F)c1)c1c(C(N)=O)[nH]c2ccc(Cl)cc12 (stereo not drawn) [Compound 6ae] | 61.6 | 11 | 0.5 | – | – | – |
| COP(=O)(c1cccc(CF)c1)c1c(C(=O)NCc2ccncc2)[nH]c2ccc(Cl)cc12 (stereo not drawn) [Compound 18c] | – | – | – | 2.9 | 4.7 | 2 |
| COP(=O)(c1cc(F)cc(F)c1)c1c(C(=O)NCC#N)[nH]c2ccc(Cl)cc12 (stereo not drawn) [Compound 59a] | – | – | – | 47.3 | 8.4 | 1.4 |
| COP(=O)(c1ccsc1)c1c(C(N)=O)[nH]c2ccc(Cl)cc12 (stereo not drawn) [Compound 52a] | – | – | – | 1.5 | 6.3 | 0.5 |
| COP(=O)(c1cc(Cl)cc(Cl)c1)c1c(C(N)=O)[nH]c2ccc(Cl)cc12 (stereo not drawn) [Compound 7b] | – | – | – | 5.3 | 16.8 | 1.2 |
| COP(=O)(c1cc(C)cc(C)c1)c1c(C(=O)NCc2ccccn2)[nH]c2ccc(Cl)cc12 (stereo not drawn) [Compound 18aam] | – | – | – | 6.8 | 22.5 | 17.3 |
| COP(=O)(c1cc(C)cc(C#N)c1)c1c(C(=O)NCc2cc[n+]([O-])cc2)[nH]c2ccc(Cl)cc12 (stereo not drawn) [Compound 22ak] | – | – | – | 6.7 | 11 | 7 |
| COP(=O)(c1cccc(C(F)(F)F)c1)c1c(C(N)=O)[nH]c2ccc(Cl)cc12 (stereo not drawn) [Compound 7e] | – | – | – | 3.2 | 1.2 | 0.9 |
| COP(=O)(c1cc(C)cc(C)c1)c1c(C(=O)NCc2cccnc2)[nH]c2ccc(Cl)c(F)c12 (stereo not drawn) [Compound 18aan] | – | – | – | 304 | 600 | 15 |
| COP(=O)(c1ccccc1)c1c(C(=O)NCc2ccccc2F)[nH]c2ccc(Cl)cc12 (stereo not drawn) [Compound 18aab] | – | – | – | 33.5 | 10.2 | 3.8 |
| CCOP(=O)(c1cccc(Cl)c1)c1c(C(N)=O)[nH]c2ccc(Cl)cc12 (stereo not drawn) [Compound 6d] | – | – | – | 16.6 | 15.8 | 1.4 |
| COP(=O)(c1cccc(-c2ccccc2)c1)c1c(C(N)=O)[nH]c2ccc(Cl)cc12 (stereo not drawn) [Compound 7i] | – | – | – | 398 | 380 | 9.9 |
| COP(=O)(c1cc(F)cc(Br)c1)c1c(C(N)=O)[nH]c2ccc(Cl)cc12 (stereo not drawn) [Compound 7j] | – | – | – | 3 | 4.1 | 1.8 |
| CCOP(=O)(c1cccc(CC)c1)c1c(C(N)=O)[nH]c2ccc(Cl)cc12 (stereo not drawn) [Compound 6e] | – | – | – | 34.1 | 1.2 | 2 |
| COP(=O)(c1cc(C)cc(C)c1)c1c(C(=O)NCc2ccc[n+]([O-])c2)[nH]c2ccc(Cl)cc12 (stereo not drawn) [Compound 22b] | – | – | – | 18.7 | 3.2 | 3.5 |
| COP(=O)(c1cc(C)cc(C)c1)c1c(C(=O)NCN2CCOCC2)[nH]c2ccc(Cl)cc12 (stereo not drawn) [Compound 18ay] | – | – | – | 19.8 | 9.3 | 3.5 |
| COP(=O)(c1ccc(F)cc1)c1c(C(N)=O)[nH]c2ccc(Cl)cc12 (stereo not drawn) [Compound 7ak] | – | – | – | 34.5 | 468 | 5.5 |
| COP(=O)(c1cccc(C(C)(C)C)c1)c1c(C(N)=O)[nH]c2ccc(Cl)cc12 (stereo not drawn) [Compound 7ar] | – | – | – | 19.3 | 30.6 | 2.9 |
| COP(=O)(c1ccccc1F)c1c(C(N)=O)[nH]c2ccc(Cl)cc12 (stereo not drawn) [Compound 7al] | 13.9 | 2.6 | 0.5 | – | – | – |
| CCOP(=O)(c1cccs1)c1c(C(N)=O)[nH]c2ccc(Cl)cc12 (stereo not drawn) [Compound 51] | – | – | – | 52.9 | 65.6 | 2.2 |
| COP(=O)(c1cc(C)cc(C)c1)c1c(C(=O)NCc2cnccn2)[nH]c2ccc(Cl)cc12 (stereo not drawn) [Compound 18i] | – | – | – | 16.8 | 1.8 | 3 |
| COP(=O)(c1cccc(CF)c1)c1c(C(N)=O)[nH]c2ccc(Cl)cc12 (stereo not drawn) [Compound 7h] | – | – | – | 6.1 | 2.5 | 0.9 |
| CCc1cc(C)cc(P(=O)(OC)c2c(C(=O)NCc3ccc[n+]([O-])c3)[nH]c3ccc(Cl)cc23)c1 (stereo not drawn) [Compound 22h] | – | – | – | 5.8 | 3.6 | 1.6 |
| COP(=O)(c1cc(C)cc(C)c1)c1c(C(=O)NCc2cncn2C)[nH]c2ccc(Cl)cc12 (stereo not drawn) [Compound 18aaa] | – | – | – | 6.4 | 3.3 | 3.2 |
| COP(=O)(c1cccs1)c1c(C(N)=O)[nH]c2ccc(Cl)cc12 (stereo not drawn) [Compound 52b] | – | – | – | 8.7 | 2.5 | 0.5 |
| COP(=O)(c1cccc(C)c1)c1c(C(=O)NCc2ccncc2)[nH]c2ccc(Cl)cc12 (stereo not drawn) [Compound 18a] | – | – | – | 10.1 | 3.1 | 1 |

| SMILES | EC50 (HIV mutant strain Y181C; [2]) [nM] | EC50 [1, 3] [nM] | EC50 (HIV BH-10 WT; [4]) [nM] | EC50 (HIV mutant strain Y181C; [5]) [nM] | EC50 [1, 6] [nM] | EC50 (HIV BH-10 WT; [7]) [nM] |
| --- | --- | --- | --- | --- | --- | --- |
| CCc1cc(C)cc(P(=O)(OC)c2c(C(N)=O)[nH]c3ccc(Cl)cc23)c1 (stereo not drawn) [Compound 7w] | – | – | – | 5.5 | 1.2 | 0.4 |
| COP(=O)(c1cc(C)cc(C)c1)c1c(C(=O)NCc2ccccc2F)[nH]c2ccc(Cl)cc12 (stereo not drawn) [Compound 18az] | – | – | – | 16.7 | 8.5 | 3 |
| COP(=O)(c1cc(C)cc(C#N)c1)c1c(C(N)=O)[nH]c2ccc(Cl)cc12 (stereo not drawn) [Compound 7as] | – | – | – | 4.8 | 2.9 | 1.4 |
| COP(=O)(c1cc(C(F)(F)F)cc(C(F)(F)F)c1)c1c(C(N)=O)[nH]c2ccc(Cl)cc12 (stereo not drawn) [Compound 7s] | – | – | – | 68.3 | 47.9 | 12.8 |
| COP(=O)(c1ccccc1)c1c(C(=O)NCc2cncn2C)[nH]c2ccc(Cl)cc12 (stereo not drawn) [Compound 18as] | – | – | – | 9.9 | 0.6 | 0.3 |
| COP(=O)(c1cc(C)cc(C)c1)c1c(C(=O)NCc2cc[n+]([O-])cc2)[nH]c2ccc(Cl)c(F)c12 (stereo not drawn) [Compound 22m] | – | – | – | 2.6 | 1.9 | 2.1 |
| COP(=O)(c1cc(F)cc(F)c1)c1c(C(=O)NCc2cncn2C)[nH]c2ccc(Cl)cc12 (stereo not drawn) [Compound 18aae] | – | – | – | 10.5 | 2.7 | 2.6 |
| COP(=O)(c1ccc(C)c(C)c1)c1c(C(N)=O)[nH]c2ccc(Cl)cc12 (stereo not drawn) [Compound 7ae] | – | – | – | 11.1 | 1.1 | 0.5 |
| COP(=O)(c1cc(C)cc(C#N)c1)c1c(C(=O)NCc2cncn2C)[nH]c2ccc(Cl)cc12 (stereo not drawn) [Compound 18aag] | – | – | – | 18.8 | 2.9 | 3.1 |
| CCOP(=O)(c1ccccc1CC)c1c(C(N)=O)[nH]c2ccc(Cl)cc12 (stereo not drawn) [Compound 6ah] | – | – | – | 211 | 307 | 16.2 |
| COP(=O)(c1cccc(C(C)C)c1)c1c(C(=O)NCc2ccncc2)[nH]c2ccc(Cl)cc12 (stereo not drawn) [Compound 18aq] | – | – | – | 31.7 | 18.6 | 12 |
| COc1cccc(P(=O)(OC)c2c(C(=O)NCc3ccco3)[nH]c3ccc(Cl)cc23)c1 (stereo not drawn) [Compound 18au] | – | – | – | 3.3 | 6 | 0.8 |
| COP(=O)(c1cc(F)cc(C(F)(F)F)c1)c1c(C(N)=O)[nH]c2ccc(Cl)cc12 (stereo not drawn) [Compound 7q] | – | – | – | 16.6 | 2.9 | 1.1 |
| COP(=O)(c1cc(C)cc(C)c1)c1c(C(=O)NCc2cc(F)ccc2F)[nH]c2ccc(Cl)cc12 (stereo not drawn) [Compound 18aai] | 15.6 | 18.3 | 3.6 | – | – | – |
| CCOP(=O)(c1cccc2ccccc12)c1c(C(N)=O)[nH]c2ccc(Cl)cc12 (stereo not drawn) [Compound 6t] | – | – | – | > 1250 | > 1250 | 32.5 |
| CCOP(=O)(c1ccccc1Cl)c1c(C(N)=O)[nH]c2ccc(Cl)cc12 (stereo not drawn) [Compound 6ai] | – | – | – | 146 | 17.3 | 1.2 |
| COP(=O)(c1ccccc1)c1c(C(=O)NCc2ccco2)[nH]c2ccc(Cl)cc12 (stereo not drawn) [Compound 18at] | – | – | – | 1.5 | 0.5 | 1.8 |
| COP(=O)(c1cc(F)cc(F)c1)c1c(C(=O)NCCC#N)[nH]c2ccc(Cl)cc12 (stereo not drawn) [Compound 59b] | – | – | – | 69.3 | 21.5 | 3.5 |
| CCOP(=O)(c1cc(C)ccc1C)c1c(C(N)=O)[nH]c2ccc(Cl)cc12 (stereo not drawn) [Compound 6aa] | 1.9 | 1.6 | 0.2 | – | – | – |
| COP(=O)(c1cc(C)cc(C)c1)c1c(C(=O)NCc2cccnc2)[nH]c2ccc(Cl)cc12 (stereo not drawn) [Compound 18f] | – | – | – | 5.9 | 3.4 | 2.3 |
| COP(=O)(c1cc(C)cc(C)c1)c1c(C(=O)NCc2cccc[n+]2[O-])[nH]c2ccc(Cl)cc12 (stereo not drawn) [Compound 22p] | – | – | – | 51.3 | 17.9 | 1.9 |
| COP(=O)(c1cc(C)cc(C)c1)c1c(C(=O)NCc2ccccc2N)[nH]c2ccc(Cl)cc12 (stereo not drawn) [Compound 18n] | – | – | – | 87.8 | 23.1 | 19.5 |
| COP(=O)(c1cccc(COCc2ccccc2)c1)c1c(C(N)=O)[nH]c2ccc(Cl)cc12 (stereo not drawn) [Compound 7ap] | – | – | – | 1140 | > 1250 | 153 |
| COP(=O)(c1cc(C)cc(C)c1)c1c(C(=O)NCc2cncnc2)[nH]c2ccc(Cl)cc12 (stereo not drawn) [Compound 18j] | 5.1 | 1.9 | 3.6 | – | – | – |
| COP(=O)(c1cc(C)cc(C)c1)c1c(C(=O)NCc2cc[n+](C)cc2)[nH]c2ccc(Cl)cc12 (stereo not drawn) [Compound 22l] | – | – | – | 269 | 77.4 | 6.1 |
| COP(=O)(c1cccc(C#N)c1)c1c(C(N)=O)[nH]c2ccc(Cl)cc12 (stereo not drawn) [Compound 7f] | – | – | – | 10.5 | 15.3 | 0.9 |
